SMILES strings stand for the structures.

T2 sequence (P41145 whole entry): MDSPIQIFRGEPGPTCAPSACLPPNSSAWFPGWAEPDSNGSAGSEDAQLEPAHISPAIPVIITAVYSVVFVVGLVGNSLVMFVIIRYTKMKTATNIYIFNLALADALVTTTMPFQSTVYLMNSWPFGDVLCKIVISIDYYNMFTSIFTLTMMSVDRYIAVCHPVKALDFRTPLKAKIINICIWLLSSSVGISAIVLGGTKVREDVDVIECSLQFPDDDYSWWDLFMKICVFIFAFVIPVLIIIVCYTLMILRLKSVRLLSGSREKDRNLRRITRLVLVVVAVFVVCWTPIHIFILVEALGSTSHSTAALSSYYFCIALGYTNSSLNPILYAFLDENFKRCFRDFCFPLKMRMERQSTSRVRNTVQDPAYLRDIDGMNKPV

For the first assay, the target named is T1, rat μ (C6-MOR) opioid receptor (Rattus norvegicus, UniProt P33535).
T1 construct: expressed in transfected cells
T1 sequence (P33535 whole entry): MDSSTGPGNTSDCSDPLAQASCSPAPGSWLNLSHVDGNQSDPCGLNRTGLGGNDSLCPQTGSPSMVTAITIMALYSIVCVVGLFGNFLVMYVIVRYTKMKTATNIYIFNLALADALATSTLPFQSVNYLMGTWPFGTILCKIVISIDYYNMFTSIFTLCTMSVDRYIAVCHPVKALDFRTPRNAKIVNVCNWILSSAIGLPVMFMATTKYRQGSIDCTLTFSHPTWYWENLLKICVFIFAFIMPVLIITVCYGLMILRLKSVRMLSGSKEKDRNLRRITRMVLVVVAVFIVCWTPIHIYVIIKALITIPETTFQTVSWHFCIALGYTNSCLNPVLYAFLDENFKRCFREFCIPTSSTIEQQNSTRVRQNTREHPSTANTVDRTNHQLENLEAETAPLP
In words: Stimulation of [35S]GTPγS binding, MOR. It is filed as biochemical. The following applies: [35S]GTPγS binding, C6-MOR membranes; mean ± standard error. In outline: (§1)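 Membranes (10–20 μg protein) from C6 glioma cells expressing rat MOR or DOR, or CHO cells expressing human KOR, were incubated 1 h at room temperature with 0.1 nM [35S]GTPγS, 30 μM GDP and test peptides in Tris buffer pH 7.4. Bound label was filtered and counted; maximal stimulation, by nonlinear regression, was relative to 10 μM DAMGO (MOR), DPDPE (DOR) or U69,593 (KOR).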
In the case of `Cc1cc(O)cc(C)c1C[C@H](N)C(=O)N(C1CC1)C1CCNc2ccc(Cc3ccccc3)cc21` (stereo partly shown) [Compound 1016], the midpoint of the response, the EC50, lay at 28.4 ± 4.4 nM.
On to `Cc1cc(O)cc(C)c1C[C@H](N)C(=O)N[C@@H]1CCNc2ccc(CN3CCC4(CCCCC4)CC3)cc21` [Compound 1060], for which the “EC50 (nm) MOR” value is given as “dns”.
The compound `Cc1cc(O)cc(C)c1C[C@H](N)C(=O)N[C@@H]1CCNc2c(CN3CCN(C(=O)[C@@H](N)Cc4c(C)cc(O)cc4C)CC3)cc(Cc3ccccc3)cc21` [Compound 1096] had a concentration for a half-maximal effect (EC50) of 5.89 ± 0.68 nM.
The same measure, in the same setting: with `Cc1cc(O)cc(C)c1C[C@H](N)C(=O)NC1CCNc2ccc(Oc3ccccc3)cc21` (stereo partly shown) [Compound 1017] the figure was 14.9 ± 5.37 nM.

Staying with this assay, now noted: [35S]GTPγS maximal stimulation compared with 10 μM standard DAMGO.
As for `Cc1cc(O)cc(C)c1C[C@H](N)C(=O)N(C1CC1)C1CCNc2ccc(Cc3ccccc3)cc21` (stereo partly shown) [Compound 1016], the Emax is 40.1 ± 10.7%.
As for `Cc1cc(O)cc(C)c1C[C@H](N)C(=O)N[C@@H]1CCNc2ccc(CN3CCC4(CCCCC4)CC3)cc21` [Compound 1060], the “% stimulation MOR” value is reported as “dns”.
As for `Cc1cc(O)cc(C)c1C[C@H](N)C(=O)N[C@@H]1CCNc2c(CN3CCN(C(=O)[C@@H](N)Cc4c(C)cc(O)cc4C)CC3)cc(Cc3ccccc3)cc21` [Compound 1096], the Emax was found to be 86 ± 8%.
As for `Cc1cc(O)cc(C)c1C[C@H](N)C(=O)NC1CCNc2ccc(Oc3ccccc3)cc21` (stereo partly shown) [Compound 1017], the Emax came out at 68 ± 2.33%.

Another assay concerns the target T2, human κ (CHO-KOR) opioid receptor (Homo sapiens, UniProt P41145).
T2 construct: expressed in transfected cells
The assay can be described thus: Radioligand binding assay, [3H]diprenorphine displacement, KOR. The following applies: displacement of 0.2 nM [3H]diprenorphine, CHO-KOR membranes; mean ± standard error. An outline of the steps:
(§2)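 Competitive displacement of 0.2 nM [3H]diprenorphine is measured on 20 μg membrane protein from C6-MOR, C6-DOR or CHO-KOR cells in 50 mM Tris-HCl, pH 7.4. Binding equilibrates for 1 h at room temperature; naloxone (10 μM) defines nonspecific binding.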
For `Cc1cc(O)cc(C)c1C[C@H](N)C(=O)N(C1CC1)C1CCNc2ccc(Cc3ccccc3)cc21` (stereo partly shown) [Compound 1016], affinity was put at a Ki of 28.6 ± 7.24 nM.
With `Cc1cc(O)cc(C)c1C[C@H](N)C(=O)N[C@@H]1CCNc2ccc(CN3CCC4(CCCCC4)CC3)cc21` [Compound 1060], the Ki turned out to be 2.44 ± 0.99 nM.
The compound `Cc1cc(O)cc(C)c1C[C@H](N)C(=O)N[C@@H]1CCNc2c(CN3CCN(C(=O)[C@@H](N)Cc4c(C)cc(O)cc4C)CC3)cc(Cc3ccccc3)cc21` [Compound 1096] returned an inhibition constant Ki of 7.17 ± 2.38 nM.
For the compound `Cc1cc(O)cc(C)c1C[C@H](N)C(=O)NC1CCNc2ccc(Oc3ccccc3)cc21` (stereo partly shown) [Compound 1017], the inhibition constant Ki is 65.5 ± 9.66 nM.

The target in another assay is T3, rat δ (C6-DOR) opioid receptor (Rattus norvegicus, UniProt P33533).
T3 construct: expressed in transfected cells
T3 sequence (P33533 whole entry): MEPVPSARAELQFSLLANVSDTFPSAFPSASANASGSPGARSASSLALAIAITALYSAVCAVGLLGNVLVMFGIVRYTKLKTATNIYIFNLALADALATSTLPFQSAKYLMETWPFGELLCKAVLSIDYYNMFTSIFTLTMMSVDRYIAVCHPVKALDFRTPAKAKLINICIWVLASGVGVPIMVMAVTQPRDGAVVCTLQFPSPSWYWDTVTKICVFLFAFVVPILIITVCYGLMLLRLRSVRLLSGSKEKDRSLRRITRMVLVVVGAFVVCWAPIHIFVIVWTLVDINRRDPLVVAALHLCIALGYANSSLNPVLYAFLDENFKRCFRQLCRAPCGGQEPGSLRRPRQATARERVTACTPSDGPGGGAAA
In words: Radioligand binding assay, [3H]diprenorphine displacement, DOR. The following applies: displacement of 0.2 nM [3H]diprenorphine, C6-DOR membranes; mean ± standard error. An outline of the steps: as §2
With `Cc1cc(O)cc(C)c1C[C@H](N)C(=O)N(C1CC1)C1CCNc2ccc(Cc3ccccc3)cc21` (stereo partly shown) [Compound 1016], the inhibition constant Ki worked out at 52.5 ± 17.8 nM.
In turn, `Cc1cc(O)cc(C)c1C[C@H](N)C(=O)N[C@@H]1CCNc2ccc(CN3CCC4(CCCCC4)CC3)cc21` [Compound 1060] returned an inhibition constant Ki of 36.5 ± 18.9 nM.
For the compound `Cc1cc(O)cc(C)c1C[C@H](N)C(=O)N[C@@H]1CCNc2c(CN3CCN(C(=O)[C@@H](N)Cc4c(C)cc(O)cc4C)CC3)cc(Cc3ccccc3)cc21` [Compound 1096], the Ki turned out to be 2.56 ± 0.53 nM.
Still for that read-out and setting: for `Cc1cc(O)cc(C)c1C[C@H](N)C(=O)NC1CCNc2ccc(Oc3ccccc3)cc21` (stereo partly shown) [Compound 1017] the value was 13.9 ± 6.7 nM.

The target of the next assay is T1, rat μ (C6-MOR) opioid receptor. In words: Radioligand binding assay, [3H]diprenorphine displacement, MOR. The following applies: displacement of 0.2 nM [3H]diprenorphine, C6-MOR membranes; mean ± standard error. An outline of the steps:
as §2
As to `Cc1cc(O)cc(C)c1C[C@H](N)C(=O)N(C1CC1)C1CCNc2ccc(Cc3ccccc3)cc21` (stereo partly shown) [Compound 1016], the Ki is 5.33 ± 2.43 nM.
Still for that read-out and setting: for `Cc1cc(O)cc(C)c1C[C@H](N)C(=O)N[C@@H]1CCNc2ccc(CN3CCC4(CCCCC4)CC3)cc21` [Compound 1060] the value was 0.22 ± 0.1 nM.
In turn, `Cc1cc(O)cc(C)c1C[C@H](N)C(=O)N[C@@H]1CCNc2c(CN3CCN(C(=O)[C@@H](N)Cc4c(C)cc(O)cc4C)CC3)cc(Cc3ccccc3)cc21` [Compound 1096] yielded a Ki of 0.31 ± 0.16 nM.
In turn, `Cc1cc(O)cc(C)c1C[C@H](N)C(=O)NC1CCNc2ccc(Oc3ccccc3)cc21` (stereo partly shown) [Compound 1017] had an inhibitory constant (Ki) of 0.42 ± 0.04 nM.

The target in a further assay is T2, human κ (CHO-KOR) opioid receptor. The assay can be described thus: Stimulation of [35S]GTPγS binding, KOR. The following applies: [35S]GTPγS binding, CHO-KOR membranes; mean ± standard error. It is filed as biochemical. On the procedure: In Vitro Pharmacology-Cell Lines and Membrane Preparations. All tissue culture reagents were purchased from Gibco Life Sciences (Grand Island, N.Y., U.S.). C6-rat glioma cells stably transfected with a rat μ (C6-MOR) or rat δ (C6-DOR) opioid receptor20 and Chinese hamster ovary (CHO) cells stably expressing a human K (CHO-KOR) opioid receptor21 were used for all in vitro assays. Cells were grown to confluence at 37° C. in 5% CO2 in Dulbecco's modified Eagle medium containing 10% fetal bovine serum and 5% penicillin/streptomycin. Membranes were prepared by washing confluent cells three times with ice cold phosphate buffered saline (0.9% NaCl, 0.61 mM Na2HPO4, 0.38 mM KH2PO4, pH 7.4). Cells were detached from the plates by incubation in warm harvesting buffer (20 mM HEPES, 150 mM NaCl, 0.68 mM EDTA, pH 7.4) and pelleted by centrifugation at 200 g for 3 min. The cell pellet was suspended in ice-cold 50 mM Tris-HCl buffer, pH 7.4, and homogenized with a Tissue Tearor (Biospec Products, Inc., Bartlesville, Okla., U.S.) for 20 s at setting 4. The homogenate was centrifuged at 20 000 g for 20 min at 4° C., and the pellet was rehomogenized in 50 mM Tris-HCl with a Tissue Tearor for 10 s at setting 2, followed by recentrifugation. The final pellet was resuspended in 50 mM Tris-HCl and frozen in aliquots at […]. Protein concentration was determined via Bradford assay using bovine serum albumin as the standard.
Stimulation of [^35S]GTPyS Binding. Agonist stimulation of [35S]guanosine 5′-O-[γ-thio]triphosphate ([^35S]GTPγS, 1250 Ci, 46.2 TBq/mmol) binding was measured as described previously Briefly, membranes (10-20 μg of protein/tube) were incubated 1 h at room temperature in GTPyS buffer (50 mM Tris-HCl, 100 mM NaCl, 5 mM MgCl2, pH 7.4) containing 0.1 nM [^35S]GTPγS, 30 μM guanosine diphosphate (GDP), and varying concentrations of test peptides. Peptide stimulation of [^35S]GTPyS was compared with 10 μM standard compounds [D-Ala^2,N-MePhe^4,Gly-ol]encephalin (DAMGO) at MOR, D-Pen^2,5-enkephalin (DPDPE) at DOR, or […] at KOR. The reaction was terminated by rapidly filtering through GF/C filters and washing 10 times with GTPyS buffer, and retained radioactivity was measured as described above. The results presented are the mean±standard error from at least three separate assays performed in duplicate; maximal stimulation was determined using nonlinear regression analysis with GraphPad Prism (GraphPad Software Inc., La Jolla, Calif.).
The compound `Cc1cc(O)cc(C)c1C[C@H](N)C(=O)N[C@@H]1CCNc2ccc(CN3CCC4(CCCCC4)CC3)cc21` [Compound 1060] showed an EC50 of 92.1 ± 15.5 nM.
For `Cc1cc(O)cc(C)c1C[C@H](N)C(=O)N[C@@H]1CCNc2c(CN3CCN(C(=O)[C@@H](N)Cc4c(C)cc(O)cc4C)CC3)cc(Cc3ccccc3)cc21` [Compound 1096], the “EC50 (nm) KOR” value was “dns”.
Turning to `Cc1cc(O)cc(C)c1C[C@H](N)C(=O)NC1CCNc2ccc(Oc3ccccc3)cc21` (stereo partly shown) [Compound 1017], the midpoint of the response, the EC50, lay at 957 nM.

The assay is the same for the next values; noted with them: [35S]GTPγS maximal stimulation compared with 10 μM standard U-69,593.
For `Cc1cc(O)cc(C)c1C[C@H](N)C(=O)N(C1CC1)C1CCNc2ccc(Cc3ccccc3)cc21` (stereo partly shown) [Compound 1016], the Emax was -0.01 ± 0.01%.
Consider `Cc1cc(O)cc(C)c1C[C@H](N)C(=O)N[C@@H]1CCNc2ccc(CN3CCC4(CCCCC4)CC3)cc21` [Compound 1060], for which the Emax is 71.6 ± 4.38%.
Consider `Cc1cc(O)cc(C)c1C[C@H](N)C(=O)N[C@@H]1CCNc2c(CN3CCN(C(=O)[C@@H](N)Cc4c(C)cc(O)cc4C)CC3)cc(Cc3ccccc3)cc21` [Compound 1096], for which the “% stimulation KOR” value is given as “dns”.
For the compound `Cc1cc(O)cc(C)c1C[C@H](N)C(=O)NC1CCNc2ccc(Oc3ccccc3)cc21` (stereo partly shown) [Compound 1017], the Emax was 23.6%.

The target in another assay is T3, rat δ (C6-DOR) opioid receptor. In words: Stimulation of [35S]GTPγS binding, DOR. It is filed as biochemical. The following applies: [35S]GTPγS binding, C6-DOR membranes; mean ± standard error. An outline of the steps: as §1
Regarding `Cc1cc(O)cc(C)c1C[C@H](N)C(=O)N[C@@H]1CCNc2ccc(CN3CCC4(CCCCC4)CC3)cc21` [Compound 1060], the “EC50 (nm) DOR” value was “dns”.
Consider `Cc1cc(O)cc(C)c1C[C@H](N)C(=O)N[C@@H]1CCNc2c(CN3CCN(C(=O)[C@@H](N)Cc4c(C)cc(O)cc4C)CC3)cc(Cc3ccccc3)cc21` [Compound 1096], for which the “EC50 (nm) DOR” value is “dns”.
With `Cc1cc(O)cc(C)c1C[C@H](N)C(=O)NC1CCNc2ccc(Oc3ccccc3)cc21` (stereo partly shown) [Compound 1017], it took 108 ± 53.3 nM to reach a half-maximal effect (EC50).

Staying with this assay, now noted: [35S]GTPγS maximal stimulation compared with 10 μM standard DPDPE.
As to `Cc1cc(O)cc(C)c1C[C@H](N)C(=O)N(C1CC1)C1CCNc2ccc(Cc3ccccc3)cc21` (stereo partly shown) [Compound 1016], the Emax is 0.82 ± 3.63%.
As to `Cc1cc(O)cc(C)c1C[C@H](N)C(=O)N[C@@H]1CCNc2ccc(CN3CCC4(CCCCC4)CC3)cc21` [Compound 1060], the “% stimulation DOR” value is recorded as “dns”.
As for `Cc1cc(O)cc(C)c1C[C@H](N)C(=O)N[C@@H]1CCNc2c(CN3CCN(C(=O)[C@@H](N)Cc4c(C)cc(O)cc4C)CC3)cc(Cc3ccccc3)cc21` [Compound 1096], the “% stimulation DOR” value is “dns”.
As for `Cc1cc(O)cc(C)c1C[C@H](N)C(=O)NC1CCNc2ccc(Oc3ccccc3)cc21` (stereo partly shown) [Compound 1017], the Emax was determined as 9.8 ± 5.49%.

The values above are taken from US10519114B2, “Peptidomimetics and methods of using the same” (The Regents of the University of Michigan, priority 2016, dated 2019).
